Experimental data: patent publication US20250257086A1, “EGFR DEGRADATION AGENT” (Beijing Tide Pharmaceutical Co., Ltd., priority 2022, published 2025)
Where two headings read alike, the source gives them in different places.

Legend:
Type in all cases: cell-based
[1] = target: T1, EGFR^L858R/T790M/C797S protein (Homo sapiens, UniProt P00533, C797S/L858R/T790M); experiment: Induction of EGFR L858R/T790M/C797S protein degradation in Ba/F3 cells (Alpha counts); conditions: 24h treatment; for degradation effect on EGFR^L858R/T790M/C797S protein (in words): FIG. 1 and 2
T1 construct: expressed in transfected cells; host or cells: Ba/F3 (EGFR^L858R/T790M/C797S) cells
T1 sequence (P00533 25-1210 T790M/C797S/L858R): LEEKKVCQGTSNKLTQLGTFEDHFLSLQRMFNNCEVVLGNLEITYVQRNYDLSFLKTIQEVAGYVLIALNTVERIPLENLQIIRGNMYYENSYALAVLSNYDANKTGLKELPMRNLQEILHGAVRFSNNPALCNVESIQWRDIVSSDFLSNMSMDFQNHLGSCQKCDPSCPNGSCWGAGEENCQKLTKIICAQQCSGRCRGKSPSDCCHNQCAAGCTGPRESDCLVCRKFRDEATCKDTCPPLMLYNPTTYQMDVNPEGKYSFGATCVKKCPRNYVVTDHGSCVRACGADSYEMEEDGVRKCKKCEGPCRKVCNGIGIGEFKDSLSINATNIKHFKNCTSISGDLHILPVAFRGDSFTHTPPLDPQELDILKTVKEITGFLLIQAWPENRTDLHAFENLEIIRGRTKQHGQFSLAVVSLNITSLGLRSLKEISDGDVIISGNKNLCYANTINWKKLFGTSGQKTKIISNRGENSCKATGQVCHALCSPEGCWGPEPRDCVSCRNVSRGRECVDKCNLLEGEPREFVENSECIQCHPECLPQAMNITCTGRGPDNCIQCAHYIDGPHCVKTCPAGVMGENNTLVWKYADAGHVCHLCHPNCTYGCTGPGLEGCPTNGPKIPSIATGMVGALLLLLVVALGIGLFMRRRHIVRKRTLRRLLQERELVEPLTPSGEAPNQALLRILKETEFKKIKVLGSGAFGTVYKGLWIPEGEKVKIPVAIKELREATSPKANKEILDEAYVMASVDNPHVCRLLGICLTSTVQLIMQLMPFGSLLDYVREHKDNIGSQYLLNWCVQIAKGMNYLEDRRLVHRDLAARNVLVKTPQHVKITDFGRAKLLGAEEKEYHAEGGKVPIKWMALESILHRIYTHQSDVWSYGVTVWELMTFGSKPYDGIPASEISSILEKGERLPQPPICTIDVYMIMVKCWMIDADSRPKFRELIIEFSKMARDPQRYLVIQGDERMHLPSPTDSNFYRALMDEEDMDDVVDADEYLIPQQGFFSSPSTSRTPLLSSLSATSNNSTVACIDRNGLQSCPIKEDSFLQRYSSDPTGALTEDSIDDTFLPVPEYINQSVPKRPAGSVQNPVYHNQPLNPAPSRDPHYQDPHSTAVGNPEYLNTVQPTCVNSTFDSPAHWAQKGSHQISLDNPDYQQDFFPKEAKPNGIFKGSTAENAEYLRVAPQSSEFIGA
Experimental: (§1) Ba/F3 (EGFR^L858R/T790M/C797S) and Ba/F3 (EGFR^Del19/T790M/C797S) cells were cultured according to the culture conditions recommended by ATCC, and analyzed by index.
(§2) Culture conditions: incubated at 37° C., 95% air, 5% CO2 incubator.
(§3) (2) Compound Stock Solution: 10 mM Stock Solution in DMSO, Stored at −20° C.
(§4) The cells in the cell culture bottle were collected, and the cells with viability of >90% can be used in the assay. Cells were seeded in a 96-well plate with 40 μL cells, 1*10^5 cells/well.
(§5) The compounds were serially diluted 3× with DMSO, with the starting concentrations of the compounds being 1.0 mM (EGFR^L858R/T790M/C797S assay) and 10 mM (EGFR^Del19/T790M/C797S assay), respectively, into 10 concentrations to prepare working solutions.
(§6) (5) Compound was Pipetted into the 96-Well Plate to Treat Cells in a 37° C., 95% Air, 5% CO2 Incubator for 24h.
(§7) • 1) 1 μg/mL EGF stimulated cells for 10 min; • 2) After the compound treatment was completed, lysis buffer was added to lyse cells; 10 μL of cell lysate was transferred to the 384-well plate; in addition, control lysate, negative control and 5 μL of acceptor mix were added to the 384-well plate; The plate was shaken on a shaker for 1-2 min; • 3) 5 μL of donor mix was added to each well; the 384-well plate was sealed, shaken on a shaker for 1-2 min, and left in the dark at room temperature overnight; then the plate was read with ELISA reader.
(§8) Alpha counts were fitted by logarithmic treatment of compound concentration with Graphpad Prism 8.0.
(§9) [formula] • X: logarithm of compound concentration; Y: Alpha Counts.

[2] = target: T2, EGFR^Del19/T790M/C797S protein (Homo sapiens, UniProt P00533, C797S/DEL746-750/T790M); experiment: Induction of EGFR Del19/T790M/C797S protein degradation in Ba/F3 cells (Alpha counts); conditions: 24h treatment; for degradation effect on EGFR^Del19/T790M/C797S protein (in words): FIG. 3; for DC50: range 1 nM to 10000 nM, FIG. 3, read-out: DC50, reduction of EGFR^Del19/T790M/C797S protein level
T2 construct: expressed in transfected cells; host or cells: Ba/F3 (EGFR^Del19/T790M/C797S) cells
T2 sequence (P00533 with tags, fused parts or gaps DEL746-750/T790M/C797S): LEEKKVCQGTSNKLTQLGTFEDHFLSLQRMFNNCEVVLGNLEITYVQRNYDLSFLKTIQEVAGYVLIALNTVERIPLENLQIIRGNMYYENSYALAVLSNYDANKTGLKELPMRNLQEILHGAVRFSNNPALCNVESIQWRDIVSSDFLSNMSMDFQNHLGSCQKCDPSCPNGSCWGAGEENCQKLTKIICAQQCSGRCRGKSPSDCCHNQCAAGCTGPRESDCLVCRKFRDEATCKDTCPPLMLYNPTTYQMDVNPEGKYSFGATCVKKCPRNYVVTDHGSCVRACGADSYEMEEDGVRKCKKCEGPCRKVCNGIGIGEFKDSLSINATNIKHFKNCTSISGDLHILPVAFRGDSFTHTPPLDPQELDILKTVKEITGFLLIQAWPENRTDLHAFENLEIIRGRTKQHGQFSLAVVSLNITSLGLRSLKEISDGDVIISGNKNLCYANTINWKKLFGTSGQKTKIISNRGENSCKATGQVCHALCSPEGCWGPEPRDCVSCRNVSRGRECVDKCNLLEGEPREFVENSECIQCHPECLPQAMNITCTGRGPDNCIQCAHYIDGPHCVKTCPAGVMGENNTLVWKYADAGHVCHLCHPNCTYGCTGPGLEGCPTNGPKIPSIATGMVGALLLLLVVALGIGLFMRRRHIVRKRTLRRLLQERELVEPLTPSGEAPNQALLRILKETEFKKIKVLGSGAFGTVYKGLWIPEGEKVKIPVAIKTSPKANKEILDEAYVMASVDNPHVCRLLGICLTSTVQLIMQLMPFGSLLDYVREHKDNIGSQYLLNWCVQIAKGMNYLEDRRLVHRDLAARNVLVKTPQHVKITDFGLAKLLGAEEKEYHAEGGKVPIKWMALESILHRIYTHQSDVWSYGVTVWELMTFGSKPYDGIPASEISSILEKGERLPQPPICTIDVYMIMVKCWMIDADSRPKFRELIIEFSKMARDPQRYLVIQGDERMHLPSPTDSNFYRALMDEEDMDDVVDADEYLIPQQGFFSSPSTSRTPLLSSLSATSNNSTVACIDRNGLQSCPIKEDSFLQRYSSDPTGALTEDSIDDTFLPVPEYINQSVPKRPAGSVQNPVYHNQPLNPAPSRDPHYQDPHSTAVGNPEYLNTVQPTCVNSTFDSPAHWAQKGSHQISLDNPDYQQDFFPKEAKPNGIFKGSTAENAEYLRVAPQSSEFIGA
Experimental: as §1, §2, §3, §4, §5, §6, §7, §8, §9

[3] = target: Ba/F3 (EGFR^L858R/T790M/C797S) cells (Homo sapiens, UniProt P00533, T790M/C797S/L858R, cells depend on it); experiment: Antiproliferative activity on Ba/F3 (EGFR L858R/T790M/C797S) cells (CTG)
Ba/F3 (EGFR^L858R/T790M/C797S) cells, sequence (P00533 whole entry T790M/C797S/L858R): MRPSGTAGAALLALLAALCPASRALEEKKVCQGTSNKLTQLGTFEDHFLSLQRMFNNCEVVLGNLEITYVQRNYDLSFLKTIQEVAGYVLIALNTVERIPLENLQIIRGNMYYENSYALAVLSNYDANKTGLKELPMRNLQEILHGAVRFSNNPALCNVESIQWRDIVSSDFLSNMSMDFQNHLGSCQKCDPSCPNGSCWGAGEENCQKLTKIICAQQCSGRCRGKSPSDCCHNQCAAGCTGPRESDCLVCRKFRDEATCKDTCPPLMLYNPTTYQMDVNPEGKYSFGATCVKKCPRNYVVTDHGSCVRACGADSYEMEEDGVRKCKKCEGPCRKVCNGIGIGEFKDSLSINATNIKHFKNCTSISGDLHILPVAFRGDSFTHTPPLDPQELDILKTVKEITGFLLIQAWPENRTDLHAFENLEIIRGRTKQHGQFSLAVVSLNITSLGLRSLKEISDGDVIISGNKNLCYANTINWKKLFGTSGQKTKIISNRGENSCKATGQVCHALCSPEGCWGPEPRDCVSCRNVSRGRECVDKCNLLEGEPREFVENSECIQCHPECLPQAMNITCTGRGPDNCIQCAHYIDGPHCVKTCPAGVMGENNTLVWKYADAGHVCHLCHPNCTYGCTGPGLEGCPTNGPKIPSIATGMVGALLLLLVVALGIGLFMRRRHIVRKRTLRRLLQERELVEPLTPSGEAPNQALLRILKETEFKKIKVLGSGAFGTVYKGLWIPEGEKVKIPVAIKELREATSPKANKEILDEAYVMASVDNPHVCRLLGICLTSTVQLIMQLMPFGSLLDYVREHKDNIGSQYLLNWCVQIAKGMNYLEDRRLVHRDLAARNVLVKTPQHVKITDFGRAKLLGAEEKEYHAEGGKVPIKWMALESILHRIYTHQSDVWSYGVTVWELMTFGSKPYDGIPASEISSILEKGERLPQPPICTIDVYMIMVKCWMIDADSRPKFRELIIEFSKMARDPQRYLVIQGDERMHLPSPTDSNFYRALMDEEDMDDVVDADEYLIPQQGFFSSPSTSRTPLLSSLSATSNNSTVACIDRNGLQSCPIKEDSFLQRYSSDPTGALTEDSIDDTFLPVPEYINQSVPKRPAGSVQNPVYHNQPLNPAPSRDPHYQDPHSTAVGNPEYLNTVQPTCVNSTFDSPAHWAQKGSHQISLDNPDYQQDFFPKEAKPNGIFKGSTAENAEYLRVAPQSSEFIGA
Summary of the method: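 Luminescent CellTiter-Glo read-out on Ba/F3 cells carrying EGFR L858R/T790M/C797S. Inhibition normalised between untreated vehicle and a 10 μM positive drug. IC50 taken from a variable-slope four-parameter fit of inhibition against log compound concentration.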

[4] = test system: H1975 (EGFR^L858R/T790M) cells; experiment: Antiproliferative activity on H1975 (EGFR L858R/T790M) cells (CTG); conditions: Homo sapiens, NCI-H1975; H1975 (EGFR^L858R/T790M) cells, 72h incubation, CTG luminescence; read-out: IC50 (nM), antiproliferative activity
Experimental: 30 nL of the compound dilution was added to a 384-well plate by Echo (Labcyte, Echo550).
The percent inhibition rate (% inhibition) was calculated by the following formula
[formula] • LUMcmpd: Luminescence value of assay compound. • LUMpositive: Average LUM value of positive drug with a concentration of 10 μM. • LUMvehicle: Average LUM value of negative control group without drug treatment.
The nonlinear regression curve (dose response-variable slope) between the value of inhibition rate (%) and the logarithm of compound concentration was fitted with graphpad prism 8.0, the effect dose curve of compound was drawn, and the IC50 value was calculated.
Y=Bottom+(Top−Bottom)/(1+10^((Log IC50−X)*HillSlope)) • X-axis: logarithm of compound concentration; Y axis: inhibition rate (inhibition).

[5] = 72h incubation, CTG luminescence, read-out: IC50 (nM), antiproliferative activity

DC50 ([1]; range 1 nM to 1000 nM, FIG. 1 and 2, read-out: DC50, reduction of EGFR^L858R/T790M/C797S protein level) [nM] | degradation effect on EGFR^Del19/T790M/C797S protein (in words) [2] | DC50 [2] [nM] | GI50 [3, 5] [nM] | IC50 [4] [nM] | SMILES | degradation effect on EGFR^L858R/T790M/C797S protein (in words) [1] | GI50 ([3]; read-out: IC50 (nM), antiproliferative activity, 72h incubation, CTG luminescence) [nM]
117 | significant degradation effects | 29.7 | 37.3 |  | C=C(F)C(=O)Nc1cc(Nc2ncc(Cl)c(Nc3ccccc3P(C)(C)=O)n2)c(OC)cc1N1CCC(N2CCN(CCCC#Cc3cccc4c3CN(C3CCC(=O)NC3=O)C4=O)CC2)CC1 (centres unmarked) [Compound D552, N-(5-((5-chloro-4-((2-(dimethylphosphoryl)phenyl)amino)pyrimidin-2-yl)amino)-2-(4-(4-(5-(2-(2,6-dioxopiperidin-3-yl)-1-oxoisoindolin-4-yl)pent-4-yn-1-yl)piperazin-1-yl)piperidin-1-yl)-4-methoxyphenyl)-2-fluoroacrylamide] | significant degradation effect | 
 |  |  | 30.3 | 17.6 | C=CC(=O)Nc1cc(Nc2ncc(Br)c(Nc3ccccc3P(C)(C)=O)n2)c(OC)cc1N1CCC(N2CCN(CCCC#Cc3cccc4c3CN(C3CCC(=O)NC3=O)C4=O)CC2)CC1 (centres unmarked) [Compound D478, N-(5-((5-bromo-4-((2-(dimethylphosphoryl)phenyl)amino)pyrimidin-2-yl)amino)-2-(4-(4-(5-(2-(2,6-dioxopiperidin-3-yl)-1-oxoisoindolin-4-yl)pent-4-yn-1-yl)piperazin-1-yl)piperidin-1-yl)-4-methoxyphenyl)acrylamide] |  | 
 | significant degradation effects | 25.1 | 35.6 | 14.6 | CC#CC(=O)Nc1cc(Nc2ncc(Cl)c(Nc3ccccc3P(C)(C)=O)n2)c(OC)cc1N1CCC(N2CCN(CCCC#Cc3cccc4c3CN(C3CCC(=O)NC3=O)C4=O)CC2)CC1 (centres unmarked) [Compound D058, N-(5-((5-chloro-4-((2-(dimethylphosphoryl)phenyl)amino)pyrimidin-2-yl)amino)-2-(4-(4-(5-(2-(2,6-dioxopiperidin-3-yl)-1-oxoisoindolin-4-yl)pent-4-yn-1-yl)piperazin-1-yl)piperidin-1-yl)-4-methoxyphenyl)but-2-ynamide] |  | 

SMILES | DC50 ([1]; range 1 nM to 1000 nM, FIG. 1 and 2, read-out: DC50, reduction of EGFR^L858R/T790M/C797S protein level) [nM] | degradation effect on EGFR^Del19/T790M/C797S protein (in words) [2] | DC50 [2] [nM] | GI50 [3, 5] [nM] | IC50 [4] [nM] | degradation effect on EGFR^L858R/T790M/C797S protein (in words) [1] | GI50 ([3]; read-out: IC50 (nM), antiproliferative activity, 72h incubation, CTG luminescence) [nM]
COc1cc(N2CCC(N3CCN(C)CC3)CC2)ccc1Nc1ncc(Cl)c(Nc2ccccc2P(C)(C)=O)n1 [Brigatinib, reference compound] |  |  |  |  | 747 | no degradation effect | 355
